Data as given in ChEMBL document CHEMBL5653631, “A Potent and Selective ULK1 Inhibitor Suppresses Autophagy and Sensitizes Cancer Cells to Nutrient Stress” (iScience, 2018).
Values belong to the compound of their own block, whether it stands above or below them.

What was measured:
[1] = molecular target: T1, Serine/threonine-protein kinase TBK1 (Homo sapiens) (UniProt Q9UHD2); experiment: Inhibition of human recombinant TBK1 at 500 nM in presence of ATP by radiometric assay relative to control
T1 sequence (whole entry): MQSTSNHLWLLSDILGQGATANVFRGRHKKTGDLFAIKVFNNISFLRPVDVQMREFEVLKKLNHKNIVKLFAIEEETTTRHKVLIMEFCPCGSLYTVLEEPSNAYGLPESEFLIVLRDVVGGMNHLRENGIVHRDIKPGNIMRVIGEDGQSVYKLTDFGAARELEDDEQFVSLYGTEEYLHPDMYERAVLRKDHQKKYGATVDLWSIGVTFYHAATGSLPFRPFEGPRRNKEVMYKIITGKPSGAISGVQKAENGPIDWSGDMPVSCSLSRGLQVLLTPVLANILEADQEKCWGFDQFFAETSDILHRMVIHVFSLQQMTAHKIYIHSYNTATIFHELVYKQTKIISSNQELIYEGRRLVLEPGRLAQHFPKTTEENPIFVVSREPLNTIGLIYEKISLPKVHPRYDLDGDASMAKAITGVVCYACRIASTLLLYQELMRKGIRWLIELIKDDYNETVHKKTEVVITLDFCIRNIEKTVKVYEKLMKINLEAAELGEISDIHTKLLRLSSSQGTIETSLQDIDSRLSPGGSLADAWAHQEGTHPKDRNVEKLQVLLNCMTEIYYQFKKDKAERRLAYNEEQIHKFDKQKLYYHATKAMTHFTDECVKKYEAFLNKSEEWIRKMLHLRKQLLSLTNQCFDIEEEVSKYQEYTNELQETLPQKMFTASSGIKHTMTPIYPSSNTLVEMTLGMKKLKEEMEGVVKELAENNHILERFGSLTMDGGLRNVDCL

[2] = molecular target: Myosin light chain kinase 2, skeletal/cardiac muscle (Homo sapiens) (UniProt Q9H1R3); experiment: Inhibition of human recombinant skMLCK at 500 nM related to control ULK1
[3] = molecular target: Mitogen-activated protein kinase 9 (Homo sapiens) (UniProt P45984); experiment: Inhibition of human recombinant JNK2 at 500 nM in presence of ATP by radiometric assay relative to control
[4] = molecular target: Cyclin-dependent kinase 6 (Homo sapiens) (UniProt Q00534); experiment: Inhibition of human recombinant CDK6 at 40 nM in presence of ATP by radiometric assay relative to control
[5] = molecular target: T2, Ephrin type-B receptor 4 (Homo sapiens) (UniProt P54760); experiment: Inhibition of human recombinant EphB4 at 40 nM in presence of ATP by radiometric assay relative to control
T2 sequence (whole entry): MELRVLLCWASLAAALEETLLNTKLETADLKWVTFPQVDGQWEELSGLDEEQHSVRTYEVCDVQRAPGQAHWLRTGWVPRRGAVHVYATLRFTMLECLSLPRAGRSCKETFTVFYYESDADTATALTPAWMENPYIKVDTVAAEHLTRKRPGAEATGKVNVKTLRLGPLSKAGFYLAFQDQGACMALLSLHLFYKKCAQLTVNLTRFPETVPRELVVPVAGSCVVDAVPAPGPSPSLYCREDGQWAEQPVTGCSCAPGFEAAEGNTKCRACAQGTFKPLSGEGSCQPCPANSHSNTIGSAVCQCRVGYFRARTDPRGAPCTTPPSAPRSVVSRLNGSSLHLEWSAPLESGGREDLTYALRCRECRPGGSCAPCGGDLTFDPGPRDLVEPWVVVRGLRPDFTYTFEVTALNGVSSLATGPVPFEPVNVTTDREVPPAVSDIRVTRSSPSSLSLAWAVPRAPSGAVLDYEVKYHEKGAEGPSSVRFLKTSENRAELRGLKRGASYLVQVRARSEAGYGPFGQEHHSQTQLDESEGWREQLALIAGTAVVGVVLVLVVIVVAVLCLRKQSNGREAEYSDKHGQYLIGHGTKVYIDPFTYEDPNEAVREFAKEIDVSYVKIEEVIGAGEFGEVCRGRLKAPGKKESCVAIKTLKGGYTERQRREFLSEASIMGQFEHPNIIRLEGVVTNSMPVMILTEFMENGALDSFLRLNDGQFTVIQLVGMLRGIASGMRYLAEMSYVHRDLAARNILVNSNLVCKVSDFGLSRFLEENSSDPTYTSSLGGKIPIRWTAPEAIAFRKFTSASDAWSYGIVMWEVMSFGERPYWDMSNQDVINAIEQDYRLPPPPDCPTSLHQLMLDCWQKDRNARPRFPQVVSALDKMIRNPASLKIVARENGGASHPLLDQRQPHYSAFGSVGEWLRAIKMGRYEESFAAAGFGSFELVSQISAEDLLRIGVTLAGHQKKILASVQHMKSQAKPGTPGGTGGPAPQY

[6] = molecular target: Protein kinase C gamma type (Homo sapiens) (UniProt P05129); experiment: Inhibition of human recombinant PKCg at 15 nM related to control ULK1
[7] = molecular target: T3, Serine/threonine-protein kinase DCLK2 (Homo sapiens) (UniProt Q8N568); experiment: Inhibition of human recombinant DCAMKL2 at 15 nM in presence of ATP by radiometric assay relative to control
T3 sequence (whole entry): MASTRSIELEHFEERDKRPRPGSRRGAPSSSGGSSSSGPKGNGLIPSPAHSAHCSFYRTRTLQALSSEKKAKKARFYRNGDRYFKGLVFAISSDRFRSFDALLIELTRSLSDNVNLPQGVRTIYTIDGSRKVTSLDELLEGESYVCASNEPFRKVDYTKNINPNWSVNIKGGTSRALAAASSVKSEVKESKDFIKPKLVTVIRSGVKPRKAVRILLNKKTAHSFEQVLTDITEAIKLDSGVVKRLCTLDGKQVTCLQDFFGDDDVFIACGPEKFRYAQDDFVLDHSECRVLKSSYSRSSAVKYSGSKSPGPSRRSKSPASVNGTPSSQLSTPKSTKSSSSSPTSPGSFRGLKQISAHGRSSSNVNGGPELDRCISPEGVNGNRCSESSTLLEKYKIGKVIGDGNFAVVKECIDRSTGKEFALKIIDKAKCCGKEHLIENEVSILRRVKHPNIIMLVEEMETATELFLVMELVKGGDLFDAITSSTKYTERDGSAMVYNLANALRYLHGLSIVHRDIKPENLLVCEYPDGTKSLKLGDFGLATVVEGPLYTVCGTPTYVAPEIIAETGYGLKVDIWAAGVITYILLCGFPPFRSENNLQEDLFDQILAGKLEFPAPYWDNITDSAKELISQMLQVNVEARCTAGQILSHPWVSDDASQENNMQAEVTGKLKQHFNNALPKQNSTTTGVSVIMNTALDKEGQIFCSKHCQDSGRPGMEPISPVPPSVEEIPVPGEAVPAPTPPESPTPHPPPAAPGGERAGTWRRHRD

Sequence of Mitogen-activated protein kinase 9 (Homo sapiens) (P45984 whole entry, looked up): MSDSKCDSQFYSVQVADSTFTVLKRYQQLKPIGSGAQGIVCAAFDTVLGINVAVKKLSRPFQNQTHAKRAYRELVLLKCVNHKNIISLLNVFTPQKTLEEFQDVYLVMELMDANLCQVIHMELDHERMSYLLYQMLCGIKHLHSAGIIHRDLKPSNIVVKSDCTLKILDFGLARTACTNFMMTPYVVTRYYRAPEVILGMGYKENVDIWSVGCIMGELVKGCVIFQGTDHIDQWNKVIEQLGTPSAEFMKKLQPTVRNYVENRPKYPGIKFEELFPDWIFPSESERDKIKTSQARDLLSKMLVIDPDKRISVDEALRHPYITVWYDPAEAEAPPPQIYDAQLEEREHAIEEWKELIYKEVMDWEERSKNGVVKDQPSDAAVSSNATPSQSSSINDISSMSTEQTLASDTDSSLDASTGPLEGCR
Sequence of Myosin light chain kinase 2, skeletal/cardiac muscle (Homo sapiens) (Q9H1R3 whole entry): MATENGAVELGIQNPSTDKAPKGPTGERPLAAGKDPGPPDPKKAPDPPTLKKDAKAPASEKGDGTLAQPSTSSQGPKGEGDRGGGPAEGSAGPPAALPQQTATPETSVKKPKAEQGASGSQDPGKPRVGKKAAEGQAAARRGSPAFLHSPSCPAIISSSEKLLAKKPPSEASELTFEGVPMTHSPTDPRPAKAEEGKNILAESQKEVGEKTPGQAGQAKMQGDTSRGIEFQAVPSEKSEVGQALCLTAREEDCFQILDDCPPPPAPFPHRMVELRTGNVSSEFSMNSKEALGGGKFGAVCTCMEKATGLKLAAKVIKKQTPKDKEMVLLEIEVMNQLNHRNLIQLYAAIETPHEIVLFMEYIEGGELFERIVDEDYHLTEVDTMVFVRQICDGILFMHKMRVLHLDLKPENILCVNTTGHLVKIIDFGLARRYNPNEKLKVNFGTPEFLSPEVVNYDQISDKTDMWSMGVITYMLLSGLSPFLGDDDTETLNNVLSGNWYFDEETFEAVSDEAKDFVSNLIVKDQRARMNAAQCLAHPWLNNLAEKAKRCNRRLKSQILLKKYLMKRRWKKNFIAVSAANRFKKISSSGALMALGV
Sequence of Cyclin-dependent kinase 6 (Homo sapiens) (Q00534 whole entry): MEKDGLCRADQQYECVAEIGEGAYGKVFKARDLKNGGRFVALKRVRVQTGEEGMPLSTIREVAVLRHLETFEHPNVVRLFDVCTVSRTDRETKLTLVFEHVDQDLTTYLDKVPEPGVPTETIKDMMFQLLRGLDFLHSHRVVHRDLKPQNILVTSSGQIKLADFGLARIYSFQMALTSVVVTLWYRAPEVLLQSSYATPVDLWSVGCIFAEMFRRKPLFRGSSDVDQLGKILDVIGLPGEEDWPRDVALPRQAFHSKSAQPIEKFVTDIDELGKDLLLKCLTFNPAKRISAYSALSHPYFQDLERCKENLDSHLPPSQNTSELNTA

inhibition [1]: 0%
fold change (FC) [2]: 0
inhibition [3]: 0%
Structure (SMILES): CNC(=O)c1ccccc1Oc1nc(Nc2cc(OC)c(OC)c(OC)c2)ncc1Br

inhibition [4]: 3%
inhibition [5]: 0%
Structure (SMILES): O=C(N[C@@H](C1CC1)C(F)(F)F)c1cc(-c2cnn3cc(-c4ccc(F)cc4)cnc23)cs1

fold change (FC) [6]: 0
inhibition [7]: 12%
Structure (SMILES): CC(C)[C@H](NC(=O)c1cc(-c2cnn3cc(-c4ccc(OCCN5CCCCC5)cc4)cnc23)cs1)C(F)(F)F
